Legend:
[1] = tested on: U87-MG; parameters: method as in PMID 26149830; conditions: orthotopic U87-MG GBM rat xenografts; cited from earlier work
[2] = tested on: MHCC97L; assay: Cell proliferation assay; format: cell-based; conditions: Homo sapiens, liver, hepatocellular carcinoma, 72 hours
[3] = molecular target: T1, CDK6–cyclin D1 (Homo sapiens, UniProt Q00534); assay: LANCE Ultra TR-FRET enzymatic profiling assay; format: biochemical
T1 construct: purchased Invitrogen
Protocol: Results were calculated as half-maximal inhibitory concentration (IC50) and inhibition constant (K i).

[4] = tested on: Colo320DM; assay: Cell proliferation assay; format: cell-based, Homo sapiens; conditions: colon carcinoma, 72 hours
Procedure, shortened: (§1)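 Read-out is either the number of live-cell nuclei per well, counted by imaging after DAPI staining, or CellTiter-Glo luminescence reflecting metabolically active cells. Cells are seeded at 4000 per well and allowed to settle overnight at 37°C in 5% CO2 before compound treatment.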

[5] = tested on: PLC/PRF/5; assay: Cell proliferation assay; format: cell-based, Homo sapiens; conditions: PLC/PRF/5, liver, hepatocellular carcinoma, 72 hours
Procedure, shortened: as §1

[6] = tested on: NCI-H2228; assay: Subcutaneous NCI-H2228 non-small cell lung cancer xenograft; format: in vivo, BALB/c nude mice; conditions: 50 mg/kg daily oral, 28 days, measured day 34
Protocol: The efficacy of GLR2007 was evaluated in human GBM and breast cancer orthotopic cell-line-derived xenografts in NOD/SCID mice (Shanghai Lingchang Biotechnology Co. Ltd, Shanghai, China) and BALB/c nude mice (Shanghai Sino-British SIPPR/BK Laboratory Animal Co. Ltd, Shanghai, China), and human lung, colorectal, and liver cancer subcutaneous cell-line-derived xenografts in BALB/c nude mice (Nanjing University National Resource Center, Nanjing, China, or Beijing Anikeeper Biotech Co., Beijing, China). Mice were maintained in humidity- and temperature-controlled conditions with food and water available ad libitum. For subcutaneous models, female BALB/c nude mice were inoculated at 4–8 weeks old with 3×10^6–1×10^7 tumor cells (see Table 1 for xenograft model cell types) in the right flank for tumor development. Randomization was performed when the mean tumor volume reached 118–171 mm^3.

[7] = tested on: BRL; assay: Cell proliferation assay; format: cell-based, Rattus norvegicus; conditions: liver, normal, 72 hours
Protocol: To quantify cell proliferation, either the nuclei of live cells were counted following staining with 4’,6-diamidino-2-phenylindole (DAPI; Sigma-Aldrich, Burlington, MA, USA), or metabolically active cells were detected using a CellTiter-Glo assay (Promega Corporation, Madison, WI, USA). Cells from a range of human and mammalian tumor cell lines (American Type Culture Collection, Manassas, VA, USA) were seeded at 4000 cells per well in 100 μL of culture medium in a 96-well plate and incubated overnight at 37°C with 5% CO2. […] In the DAPI staining method, cells were washed using 1× phosphate-buffered saline (PBS; Gibco Thermo Fisher Scientific, Waltham, MA, USA), fixed with 4% formaldehyde, permeabilized with 0.2% Triton X-100 (Sigma-Aldrich), washed again, and stained with 1 μg/mL DAPI to visualize cell nuclei. Cells were washed with 1× PBS three times, and 100 μL 1× PBS was added to each well. Plates were scanned using an IN Cell Analyzer 2200 (GE Healthcare Life Sciences, Chicago, IL, USA) and the number of cells per well was recorded. In the CellTiter-Glo assay, 60 μL of CellTiter-Glo luminescent solution was added to each well after incubation with the test compounds, and the assay plate was scanned using a Tecan Infinite M1000 PRO microplate reader (Tecan Group AG, Männedorf, Switzerland) to record luminescent signals.

[8] = molecular target: T2, CDK4–cyclin D1 (Homo sapiens, UniProt P11802); assay: LANCE Ultra TR-FRET enzymatic profiling assay; format: biochemical
T2 construct: purchased Invitrogen
T2 sequence (P11802 whole entry): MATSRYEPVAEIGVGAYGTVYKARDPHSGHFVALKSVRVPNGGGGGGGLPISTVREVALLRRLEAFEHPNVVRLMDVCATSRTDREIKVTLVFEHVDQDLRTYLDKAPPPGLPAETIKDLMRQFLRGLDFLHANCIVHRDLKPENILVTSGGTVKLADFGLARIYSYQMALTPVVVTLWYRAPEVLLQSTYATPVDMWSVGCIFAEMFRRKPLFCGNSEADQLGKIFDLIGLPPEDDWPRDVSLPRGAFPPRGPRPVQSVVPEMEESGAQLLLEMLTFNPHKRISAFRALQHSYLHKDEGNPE
T2 sequence (P24385 whole entry partner): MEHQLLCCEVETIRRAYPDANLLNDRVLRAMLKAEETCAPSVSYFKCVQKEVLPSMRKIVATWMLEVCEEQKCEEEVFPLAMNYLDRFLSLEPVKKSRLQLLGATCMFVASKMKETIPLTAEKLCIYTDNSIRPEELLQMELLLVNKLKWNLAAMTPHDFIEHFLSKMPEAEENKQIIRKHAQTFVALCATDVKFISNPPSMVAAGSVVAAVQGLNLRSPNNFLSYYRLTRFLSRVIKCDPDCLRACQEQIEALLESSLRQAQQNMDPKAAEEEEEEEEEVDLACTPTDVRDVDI
Protocol: Results were calculated as half-maximal inhibitory concentration (IC50) and inhibition constant (K i). IC50 and K i values were determined using the XLfit 205 model (ID Business Solutions Ltd, Guildford, UK) curve-fitting add-on for Microsoft Excel (Microsoft Corporation, Redmond, WA, USA).

[9] = tested on: P-glycoprotein; conditions: cited from earlier work
[10] = tested on: breast cancer resistance protein (BCRP); conditions: cited from earlier work
[11] = Excretion of radioactivity in intact rats; format: in vivo, Sprague Dawley rats
Protocol: (§2) To investigate the degree to which GLR2007 penetrated organs and tissues, and the levels of excretion of the compound, rats were dosed with radiolabeled GLR2007 and whole-body autoradiography was performed. Sprague Dawley rats (Vital River Laboratory Animal Technology Co., Beijing, China; N=38, female n=19; 8–11 weeks old) were maintained in humidity- and temperature-controlled conditions on a 12-hour light/dark cycle, with food (certified rat diet; Jiangsu Xietong Pharmaceutical Biological Engineering Co., Ltd, Jiangsu, China) and water available ad libitum. […] Urine, feces, and cage rinse/wash up to 168 hours after treatment were collected from six intact rats (three male, three female); bile, urine, feces, and cage rinse/wash up to 72 hours after treatment were collected from eight bile duct cannulated (BDC) rats (four male, four female). Heart, lung, liver, spleen, kidneys, whole brain, stomach tract wall, intestinal tract wall, skeletal muscle, body fat, reproductive organs (uterus and ovary for female rats, testis and epididymis for male rats) were collected at 2, 6, 24, and 72 hours after treatment (three male, three female per time point). The total radioactivity (TRA) of plasma, bile, urine, and cage rinse/wash samples was directly analyzed by liquid scintillation counting. Fecal and tissue homogenates and blood were combusted using a PerkinElmer Oxidizer (PerkinElmer Inc.), and the generated [^14C]CO2 was captured in ^14C scintillation cocktail (Shimadzu Corporation, Kyoto, Japan), followed by analysis using a PerkinElmer Liquid Scintillation Counter (PerkinElmer Inc.). The TRA levels determined in bile, urine, feces, and cage rinse/wash were used to calculate the percentage of the administered dose excreted. Mean TRA values of whole brain and plasma at 2, 6, 24, and 72 hours were used to calculate the area under concentration–time curve from time zero to 72 hours (AUC0–72), using a noncompartmental model in Phoenix WinNonlin v6.3 software (Certara, Princeton, NJ, USA).

[12] = Excretion of radioactivity in bile duct cannulated (BDC) rats; format: in vivo, Sprague Dawley rats
Protocol: as §2

[13] = tested on: U87-MG; conditions: cell line U87-MG; cited from earlier work

T1 sequence (Q00534 whole entry): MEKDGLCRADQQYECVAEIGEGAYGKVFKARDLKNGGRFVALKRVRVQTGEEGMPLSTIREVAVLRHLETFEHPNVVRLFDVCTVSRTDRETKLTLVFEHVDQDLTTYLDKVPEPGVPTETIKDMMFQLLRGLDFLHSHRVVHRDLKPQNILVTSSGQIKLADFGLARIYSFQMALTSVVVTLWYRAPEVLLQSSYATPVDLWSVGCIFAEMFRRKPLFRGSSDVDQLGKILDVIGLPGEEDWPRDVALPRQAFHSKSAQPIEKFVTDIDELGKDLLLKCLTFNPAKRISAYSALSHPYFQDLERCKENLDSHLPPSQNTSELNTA
T1 sequence (P24385 whole entry partner): as the sequence (P24385 whole entry partner) above

| Structure (SMILES) | Increase in survival time compared to vehicle control [1] [%] | IC50 [2] [nM] | Ki ([3]; CDK6/CyD1) [nM] | IC50 ([3]; CDK6/CyD1, 11 concentrations in duplicates) [nM] | IC50 [4] [nM] | IC50 [5] [nM] | TGI (%) [6] [%] | IC50 [7] [nM] | Ki ([8]; CDK4/CyD1) [nM] | IC50 ([8]; CDK4/CyD1, 11 concentrations in duplicates) [nM] | Substrate of efflux transporter P-glycoprotein [9] | Substrate of efflux transporter BCRP [10] | Radioactivity excreted via feces ([11]; single oral 6 mg/100 μCi/kg) [%] | Dose recovered ([11]; within 168 hours, single oral 6 mg/100 μCi/kg) [%] | Dose recovered ([11]; within the first 48 hours) [%] | Dose recovered in bile ([12]; BDC rats, within 72 hours) [%] | Dose recovered ([12]; BDC rats, within 72 hours, single oral 6 mg/100 μCi/kg) [%] | Dose predicted to be absorbed ([12]; based on excretion in bile and urine from BDC rats) | Cell cycle effect [13] |
| --- | --- | --- | --- | --- | --- | --- | --- | --- | --- | --- | --- | --- | --- | --- | --- | --- | --- | --- | --- |
| CCN1CCN(Cc2ccc(Nc3ncc(F)c(-c4cc(F)c5nc(C)n(C(C)C)c5c4)n3)nc2)CC1 [Abemaciclib, abemaciclib, reference compound] | 37.4 | 236 | – | – | – | – | – | – | – | – | – | – | – | – | – | – | – | – | – |
| CC1=Nc2c(F)cc(-c3nc(Nc4ccc(C5CCN(C)CC5)cn4)ncc3F)cc2C12CCCC2 [GLR2007] | – | – | < 0.08 | 0.53 | 1140 | 302 | 33.9 | 2120 | < 0.1 | 0.22 | not a substrate | not a substrate | 84.10 | 95.5 | 74.3 | 33.3 | 84.2 | at least 42.4% | induce G1 arrest |

Reference: PMC9403987 (Frontiers in Oncology, 2022)
